These results are taken from ChEMBL document CHEMBL3217471, “Prenyltransferase Inhibitors: Treating Human Ailments from Cancer to Parasitic Infections” (Medchemcomm, 2013).

The structures appear in SMILES notation.

For one assay, the species on record is Homo sapiens. As to the kind of experiment: Selectivity ratio of IC50 for human GGTase 1 in human Burkitt lymphoma (Daudi) cell supernatant to IC50 for human recombinant FTase.
Assay [1] concerns the target Geranylgeranyl transferase type I (Homo sapiens, UniProt P49354+P53609). Description: Inhibition of human GGTase1 in human Burkitt lymphoma (Daudi) cell supernatant using [3H]geranylgeranyl.
The target in assay [2] is T1, Protein farnesyltransferase (Homo sapiens, UniProt P49354+P49356). As to the kind of experiment: Inhibition of human recombinant FTase using [3H]farnesyldiphosphate. Type of assay: protein-complex assay.
The target of assay [3] is T1, Protein farnesyltransferase. Description: Binding affinity to FTase (unknown origin).
Assay [4] is described as follows: Inhibition of rat RabGGTase using [3H]GGPP by scintillation counting.
Assay [5] is described as follows: Inhibition of human RabGGTase using [3H]GGPP by scintillation counting.

Turning to `Cc1nc[nH]c1CN1CCN(C(=O)N[C@@H](CC(C)C)C(=O)O)[C@@H](Cc2ccccc2)C1=O` [GGTI-2418], the Ratio IC50 in the assay filed under Homo sapiens is over 5000. In addition, the half-inhibitory concentration (IC50) – broadly, the concentration that gives 50% inhibition – in assay [1] is 9.5 nM; in assay [2] it was 53000 nM. As to `N#Cc1ccc2c(c1)CN(S(=O)(=O)c1cccs1)[C@@H](Cc1ccccc1)CN2Cc1ncc[nH]1`, the IC50 was over 1000 nM in assay [1] and 1.35 nM in assay [2]. `CSCC[C@H](NC(=O)c1ccc(NC[C@@H](N)CS)cc1-c1ccccc1)C(=O)O` showed an IC50 in assay [1] of 50 nM. Take `CC(C)C[C@H](NC(=O)c1ccc(NC[C@@H](N)CS)cc1-c1ccccc1)C(=O)O`: the values for the IC50 in assay [1] and in assay [2] were 5 nM and 25 nM, respectively. For the compound `O=C(NCCCn1ccnc1)[C@H]1CN([C@@H]2c3ccc(Cl)cc3CCc3cc(Br)cnc32)CCN1C(=O)NC1CCCCC1`, the IC50 in assay [2] worked out at 0.4 nM. As for `NC(=O)N1CCC(CC(=O)N2CCC([C@H]3c4ncc(Br)cc4CCc4cc(Cl)cc(Br)c43)CC2)CC1` [LONAFARNIB], in assay [1], the IC50 is over 50000 nM. Take `CC(C)=CCC/C(C)=C/CC/C(C)=C/CO[P@@](=O)(O)OP(=O)(O)O` [FARNESYL DIPHOSPHATE]: in assay [3], the Kd (usually the constant that tells how readily two partners part at equilibrium) is 2 nM. With `N#Cc1ccc2cc1Oc1ccc3c(c1)[C@@H](CCC3)N1CC[C@@H](NCc3cncn3C2)C1=O` [(1R,5R)-30-OXO-19-OXA-2,6,10,12-TETRAAZAHEXACYCLO[18.6.2.1^{2,5}.1^{14,18}.0^{8,12}.0^{23,27}]TRIACONTA-8,10,14(29),15,17,20(28),21,23(27)-OCTAENE-17-CARBONITRILE (STRUCTURAL MIX)], the IC50 in assay [2] stood at 0.02 nM. For the compound `Cn1cncc1[C@@](N)(c1ccc(Cl)cc1)c1ccc2c(c1)c(-c1cccc(Cl)c1)cc(=O)n2C` [TIPIFARNIB], in assay [1], the IC50 was over 50000 nM. The compound `O=C(O)C(Cl)(Cc1cccnc1)P(=O)(O)O` (configuration not stated) registered a half-inhibitory concentration (IC50) in assay [4] of 16400 nM. For `Cc1ccccc1S(=O)(=O)N1[C@H](C(C)(C)C)C[C@@H](C(=O)O)[C@@H]1c1ccc(Cl)cc1`, the Ratio IC50 in the assay filed under Homo sapiens was 100. In addition, the IC50 is 466 nM in assay [1] and over 50000 nM in assay [2].

Consider `COc1ccc(S(=O)(=O)N2Cc3cc(-c4ccc(C#N)o4)ccc3N(Cc3cncn3C)C[C@H]2Cc2ccc(OC(=O)NCc3ccccc3)cc2)cc1`, for which the IC50 was 42 nM in assay [4], over 99500 nM in assay [1] and over 9700 nM in assay [2].

`CC(C)[C@@H](CO[C@@H](Cc1ccccc1)C(=O)N[C@@H](CCS(C)(=O)=O)C(=O)O)NC[C@@H](N)CS`: the IC50 came to 50 nM in assay [1] and 1.8 nM in assay [2].

Consider `COc1ccc(S(=O)(=O)N2Cc3cc(C#N)ccc3N(Cc3cncn3C)C[C@H]2Cc2ccccc2)cc1`, for which the IC50 was 724 nM in assay [4], over 99500 nM in assay [1] and 6 nM in assay [2]. In the case of `O=C(O)C(O)(Cc1cccnc1)P(=O)(O)O` (configuration not stated), the IC50 in assay [5] turned out to be 600000 nM; in assay [4], 24100 nM. For `O=C(O)C(O)(Cc1cnc2ccccn12)P(=O)(O)O` (single isomer, unassigned; (+)) [(2-HYDROXY-3-IMIDAZO[1,2-A]PYRIDIN-3-YL-2-PHOSPHONOPROPIONIC ACID (ENANTIONMERS)], in assay [4], 1300 nM corresponded to half-maximal inhibition (IC50). On to `Cc1ccccc1-c1cc(NCc2c[nH]cn2)ccc1C(=O)N[C@@H](CC(C)C)C(=O)O`, for which, in the assay listed under Homo sapiens, the Ratio IC50 is over 250. For the same compound, the IC50 came out at 21 nM in assay [1] and 5600 nM in assay [2]. `Cn1cncc1CN(Cc1cccc(C#N)c1)c1ccc(C#N)c(-c2cccc3ccccc23)c1`: in assay [2], the IC50 was 0.39 nM.
